Reference: PMC7520961, “Safety evaluation of the interchangeable use of robenacoxib in commercially-available tablets and solution for injection in cats” (BMC Veterinary Research, 2020)

Assays:
cats [1] = assay: Hematology, coagulation and urinalysis (target animal safety study); format: in vivo, cat; details: for Absolute Punctate Reticulocyte (mean ± SD) / Basophils (mean ± SD) / Other Cells (mean ± SD) / Monocytes (mean ± SD) / Eosinophils (mean ± SD) / Neutrophils (mean ± SD) / Lymphocytes (mean ± SD) / Erythrocytes (mean ± SD) / Leukocytes (mean ± SD) / Hemoglobin (mean ± SD) / Prothrombin Time (mean ± SD) / APTT (mean ± SD) / MCH (mean ± SD) / Absolute Aggregate Reticulocyte (mean ± SD) / Hematocrit (mean ± SD) / MCHC (mean ± SD) / MCV (mean ± SD) / Platelets (mean ± SD) / Fibrinogen (mean ± SD): post-treatment, average of days 13 and 37; for Basophils (mean ± SD): reference range 0 - 0.03; for Other Cells (mean ± SD): reference range 0 - 0.05; for Monocytes (mean ± SD): reference range 0 - 0.81; for Eosinophils (mean ± SD): reference range 0 - 1.31, significant treatment x sex effect (p<0.1); for Neutrophils (mean ± SD): reference range 0 - 12.65; for Lymphocytes (mean ± SD): reference range 2.18 - 13.48; for Erythrocytes (mean ± SD): reference range 5.36 - 10.78; for Leukocytes (mean ± SD): reference range 6.3 - 27.2; for Hemoglobin (mean ± SD): reference range 7.5 - 14.4; for Prothrombin Time (mean ± SD): reference range 8.7 - 11; for APTT (mean ± SD): reference range 11.2 - 18.7; for MCH (mean ± SD): reference range 11.9 - 15.1; for Absolute Aggregate Reticulocyte (mean ± SD): reference range 12.9 - 106.6; for Hematocrit (mean ± SD): reference range 22.5 - 41.6; for MCHC (mean ± SD): reference range 30.4 - 38; for MCV (mean ± SD): reference range 34.3 - 47.5; for Platelets (mean ± SD): reference range 107 - 779; for Fibrinogen (mean ± SD): reference range 152 - 278
Protocol: Buccal mucosal bleeding times (BMBT) were measured on all animals on Days − 5 and 36 following ECG examinations while the animals were sedated. The upper lip was everted and a Surgicutt incision device was used to create a small incision (approximately 1 mm in depth and 3.5 mm in length). Blood flow from the incision site was blotted using filter paper below the incision. The elapsed time from the triggering of the device until blood no longer appeared on the filter paper was recorded as the bleed time. Clinical pathology evaluations were conducted on all animals on Days − 13 and − 6 and prior to dosing on Days 13 and 37. Because reference values given by the laboratory were (slightly) different for males and females, they were combined (i.e. lower of the two lower bounds to higher of the two upper bounds) for the tables. Animals were fasted 8–12 hours overnight prior to blood collection. Blood samples (3.0 mL) were collected from the jugular vein into tubes containing K3EDTA for evaluation of hematology parameters, sodium citrate for evaluation of coagulation parameters, and serum separators with no anticoagulant for the clinical chemistry samples. Urine samples were collected on Days […], 13, and 37 by replacing the litter in the litter box with NoSorb® (Creative Science, LLC, Ballwin, MO, USA) for at least 16 hours. Hematology variables were determined using an Advia 120 or Advia 2120 (Siemens, Munich, Germany), light microscope, or sediplast column (Polymedco, NY, US). Coagulation variables were determined using a Stago Compact (Diagnostica Stago, Parsippany, NJ, US), clinical chemistry variables were determined using an Olympus AU2700 or AU640e (Olympus Diagnostics, Southall, UK), and urinalysis variables were determined using a Clinitek-500 or Atlas (Siemens, Munich, Germany), Reichert VET 360 (Reichert Technologies, Buffalo, New York, USA), or light microscope.
Post-treatment values were analyzed using RMANCOVA, with treatment group, sex, time, and their interactions as fixed model effects and the pre-treatment value measured closest to dosing as a covariate. Repeated measurements in the same animal were modeled using a compound symmetry or heterogeneous compound symmetry correlation structure (for food consumption: autoregressive first-order or heterogeneous autoregressive first-order); the model with the smallest Akaike’s Information Criterion was selected for each outcome.
If any of the interactions involving treatment was significant (p < 0.1 for the two-factor interactions or p < 0.05 for the three-factor interaction), it was inappropriate to evaluate the main or overall treatment effect independently of the interacting factor and, as such, treatment comparisons were conducted for each level of the interacting factor. If none of the interactions involving treatment were significant, overall treatment differences were assessed.

cats [2] = details: in vivo
cats [3] = details: in vivo; remark: listed apart in the source
Protocol: Cageside observations were performed twice daily on all animals for morbidity, mortality, injury, and the availability of food and water. Detailed clinical observations were performed by trained technical staff twice per day beginning on Day − 2. Observations were at least six hours apart with the first occurring 1–2 hours after dose administration. Observations included, but were not limited to eyes, mucus membranes, respiratory system, circulatory system, autonomic and central nervous systems, somatomotor activity and behavior pattern. Body weight was measured on Day − 19 and weekly beginning Day − 14. Individual food consumption was measured daily beginning on Day − 7. Injection sites were evaluated for erythema, edema, heat, and pain response (i.e., vocalization upon palpation using a 3-point Likert scale) on each day of subcutaneous dosing prior to and 7 to 8 hours after dosing and once daily for three days following each dose administration. If any injection site was abnormal at the end of the observation period, additional assessments were carried out until the cat returned to normal or until end of the study.

[4] = 1X (oral ≥2.4, SC 2.0 mg/kg/day)
[5] = 2X (oral ≥4.8, SC 4.0 mg/kg/day)
[6] = 3X (oral ≥7.2, SC 6.0 mg/kg/day)

Compound: CCc1ccc(Nc2c(F)c(F)cc(F)c2F)c(CC(=O)O)c1 [robenacoxib]
- Absolute Punctate Reticulocyte (mean ± SD) (cats [1]; [4]): 2277 ± 658 10^3/µL
- Basophils (mean ± SD) (cats [1]; [4]): 0.006 ± 0.011 10^3/µL
- Other Cells (mean ± SD) (cats [1]; [4]): 0.62 ± 0.95 10^3/µL
- Monocytes (mean ± SD) (cats [1]; [4]): 0.27 ± 0.22 10^3/µL
- Eosinophils (mean ± SD) (cats [1]; [4]): 1.08 ± 0.40 10^3/µL
- Neutrophils (mean ± SD) (cats [1]; [4]): 5.28 ± 1.75 10^3/µL
- Lymphocytes (mean ± SD) (cats [1]; [4]): 6.69 ± 2.61 10^3/µL
- Erythrocytes (mean ± SD) (cats [1]; [4]): 7.24 ± 0.88 10^6/µL
- Leukocytes (mean ± SD) (cats [1]; [4]): 13.95 ± 4.43 10^3/µL
- Hemoglobin (mean ± SD) (cats [1]; [4]): 9.96 ± 0.98 g/dL
- Prothrombin Time (mean ± SD) (cats [1]; [4]): 11.03 ± 0.62 s
- APTT (mean ± SD) (cats [1]; [4]): 23.35 ± 16.35 s
- MCH (mean ± SD) (cats [1]; [4]): 13.82 ± 0.81 pg
- Absolute Aggregate Reticulocyte (mean ± SD) (cats [1]; [4]): 4.02 ± 4.81 10^3/µL
- Hematocrit (mean ± SD) (cats [1]; [4]): 30.66 ± 3.36%
- MCHC (mean ± SD) (cats [1]; [4]): 32.53 ± 0.55 g/dL
- MCV (mean ± SD) (cats [1]; [4]): 42.49 ± 2.78 fL
- Platelets (mean ± SD) (cats [1]; [4]): 253.7 ± 157.1 10^3/µL
- Fibrinogen (mean ± SD) (cats [1]; [4]): 180.8 ± 37.0 mg/dL
- Absolute Punctate Reticulocyte (mean ± SD) (cats [1]; [5]): 1915 ± 702 10^3/µL
- Basophils (mean ± SD) (cats [1]; [5]): 0.010 ± 0.011 10^3/µL
- Other Cells (mean ± SD) (cats [1]; [5]): 0.30 ± 0.71 10^3/µL
- Monocytes (mean ± SD) (cats [1]; [5]): 0.28 ± 0.14 10^3/µL
- Eosinophils (mean ± SD) (cats [1]; [5]): 0.94 ± 0.52 10^3/µL
- Neutrophils (mean ± SD) (cats [1]; [5]): 5.73 ± 1.34 10^3/µL
- Lymphocytes (mean ± SD) (cats [1]; [5]): 6.16 ± 1.81 10^3/µL
- Erythrocytes (mean ± SD) (cats [1]; [5]): 7.58 ± 0.82 10^6/µL
- Leukocytes (mean ± SD) (cats [1]; [5]): 13.43 ± 3.10 10^3/µL
- Hemoglobin (mean ± SD) (cats [1]; [5]): 9.99 ± 1.06 g/dL
- Prothrombin Time (mean ± SD) (cats [1]; [5]): 10.77 ± 0.56 s
- APTT (mean ± SD) (cats [1]; [5]): 16.68 ± 2.52 s
- MCH (mean ± SD) (cats [1]; [5]): 13.21 ± 0.99 pg
- Absolute Aggregate Reticulocyte (mean ± SD) (cats [1]; [5]): 1.38 ± 4.14 10^3/µL
- Hematocrit (mean ± SD) (cats [1]; [5]): 30.17 ± 3.65%
- MCHC (mean ± SD) (cats [1]; [5]): 33.14 ± 0.65 g/dL
- MCV (mean ± SD) (cats [1]; [5]): 39.86 ± 3.11 fL
- Platelets (mean ± SD) (cats [1]; [5]): 334.7 ± 155.9 10^3/µL
- Fibrinogen (mean ± SD) (cats [1]; [5]): 180.3 ± 22.2 mg/dL
- Absolute Punctate Reticulocyte (mean ± SD) (cats [1]; [6]): 2129 ± 555 10^3/µL
- Basophils (mean ± SD) (cats [1]; [6]): 0.006 ± 0.007 10^3/µL
- Other Cells (mean ± SD) (cats [1]; [6]): 0.44 ± 0.92 10^3/µL
- Monocytes (mean ± SD) (cats [1]; [6]): 0.26 ± 0.15 10^3/µL
- Eosinophils (mean ± SD) (cats [1]; [6]): 1.10 ± 0.40 10^3/µL
- Neutrophils (mean ± SD) (cats [1]; [6]): 5.46 ± 1.04 10^3/µL
- Lymphocytes (mean ± SD) (cats [1]; [6]): 7.50 ± 2.64 10^3/µL
- Erythrocytes (mean ± SD) (cats [1]; [6]): 7.73 ± 0.88 10^6/µL
- Leukocytes (mean ± SD) (cats [1]; [6]): 14.76 ± 3.66 10^3/µL
- Hemoglobin (mean ± SD) (cats [1]; [6]): 10.13 ± 1.15 g/dL
- Prothrombin Time (mean ± SD) (cats [1]; [6]): 10.84 ± 0.46 s
- APTT (mean ± SD) (cats [1]; [6]): 16.83 ± 2.52 s
- MCH (mean ± SD) (cats [1]; [6]): 13.11 ± 0.65 pg
- Absolute Aggregate Reticulocyte (mean ± SD) (cats [1]; [6]): 1.45 ± 4.17 10^3/µL
- Hematocrit (mean ± SD) (cats [1]; [6]): 30.90 ± 3.81%
- MCHC (mean ± SD) (cats [1]; [6]): 32.80 ± 1.57 g/dL
- MCV (mean ± SD) (cats [1]; [6]): 40.03 ± 2.65 fL
- Platelets (mean ± SD) (cats [1]; [6]): 301.4 ± 173.8 10^3/µL
- Fibrinogen (mean ± SD) (cats [1]; [6]): 172.5 ± 16.3 mg/dL
- coagulation or urinalysis values between groups (cats [1]; all groups during the study): no significant differences
- QT duration vs control (RR interval as covariate) (cats [2]): No prolongation
- QT interval, average post-treatment (cats [2]): approximately 160 ms
- QT interval, average pretest values (cats [2]): approximately 140 ms
- mean baseline heart rate (cats [2]): approximately 305 bpm
- mean heart rate post treatment (cats [2]): 260-277 bpm
- qualitative assessment of electrocardiograms (cats [2]): qualitatively normal
- Emesis (cats [3]): observed once on Days 36 and 37
- duration of injection site edema post injection (cats [3]): up to 120 hours
- injection site erythema, heat or pain (cats [3]): no signs
- time to resolution of injection site changes (cats [3]): ≤ 72 h
- occurrence of injection site edema vs control animals (cats [3]; sc): significantly higher
